Laboratory results reported in US20260355189A1, “SMALL MOLECULE INHIBITORS OF NEUTROPHIL EXOCYTOSIS AND INFLAMMATION” (THE SCRIPPS RESEARCH INSTITUTE, priority 2022, published 2026).

Columns and labels:
mouse neutrophils = experiment: Isoluminol-dependent chemiluminescence assay of MPO secretion in purified mouse neutrophils; type: cell-based; conditions: 10 μM inhibitor, PMA stimulated, FIG. 3B
Source text: FIGS. 3A-C illustrate the effect of Inhibitors C1, C2, C4, C5, and C6 and comparator Nexinhib 20 (shown as “C20”) on MPO secretion of mouse neutrophils. FIG. 3A is a schematic representation of a cell-based secondary screening assay used to analyze the potency the potency of Rab27a-JFC1 inhibitors for their ability to decrease exocytosis of intact human neutrophil. This cell-based assay measures the secretion of myeloperoxidase (MPO) by human neutrophils using cell-impermeant isoluminol-dependent chemiluminescence in the absence of exogenous peroxidases.
(§1) Human neutrophils were isolated from normal donor's blood by Ficoll density centrifugation, as described previously (23). Murine bone marrow-derived neutrophils were isolated using a Percoll gradient fractionation system as described (24). A three-layer Percoll gradient was used (52%, 64%, and 72%), and neutrophils were isolated from the 64-72% interface, washed, and used in the assays.
Extracellular MPO-dependent reactive oxygen species (ROS) production was measured using the chemiluminescence reactions mediated by isoluminol (25). To this end, 3×10^5 neutrophils were resuspended in serum-free RPMI 1640 medium in the presence of cell-impermeant isoluminol, and reactions were carried out in the absence of exogenous peroxidase. Neutrophils were incubated in the presence of compounds or DMSO (0.5%) pin-tooled into 384-well plates in a […]. Control experiments were run in parallel in the presence of [COMPOUND LEFT OUT] (0.5 mM) to inhibit endogenous myeloperoxidase. After addition of stimuli (phorbol 12-myristate 13-acetate, “PMA”) or vehicle using liquid handling devices (BioRaptor FRD, Beckman Coulter), MPO-dependent chemiluminescence was continuously monitored for 30 min at 37 °C using a 2104 EnVision multilabel plate reader. For secretion assays, 0.5×10^6 neutrophils were incubated in RPMI 1640 medium in polystyrene 96-well plates in the presence of Inhibitors or dimethyl sulfoxide (DMSO) control for 1 hour and stimulated for the indicated times at 37 °C with PMA (0.1 μg/ml), GM-CSF (10 ng/ml), and fMLP (1 μM) or DMSO control. The cells were spun down, and supernatants were transferred to clean plates using plate filters to avoid contamination from cellular secretory proteins. MPO was measured by ELISA (R&D Systems).
Results: FIG. 3B is a graph showing the effect of Inhibitors C1, C2, C4, C5, and C6 on secreted MPO-dependent reaction using the isoluminol-dependent chemiluminescence assay in highly purified mouse neutrophils. On the graph of FIG. 3B, the pre-fix “NS” means “no stimuli” where the cells were treated with 10 μM C1, C2, C4, C5, C6, and C20 alone without any exocytosis stimuli. The pre-fix “PMA” means the cells were stimulated with PMA to secrete MPO and were treated with 10 μM of the designated Inhibitor. […] Mean % inhibition: C1, 76.74; C2, 59.85; C4, 70.9; C6, 62.4; C20, 99.22.

[1] = system: human neutrophils (secretory vesicle marker CD11b); experiment: Flow cytometry of secretory vesicle mobilization (CD11b) in human neutrophils; type: cell-based; conditions: 10 μM, 1 hour; GM-CSF + fMLP; relative to DMSO; N=15 donors; FIG. 7
Source text: as §1
Method: The up-regulation of granule membrane-associated neutrophil markers at the plasma membrane was analyzed by flow cytometry. In these studies, flow cytometry analysis was performed by resuspension of 1×10^6 human neutrophils in phenol red-free RPMI 1640 medium, treated with a 10 μM solution of Inhibitors C1, C2, C4, C5, and C6 and Nexinhib 20 (C20) or DMSO control for 1 hour, and stimulated with physiological agonists GM-CSF (10 ng/ml) for 30 min followed by the addition of fMLP (1 μM) to induce degranulation or left untreated at 37 °C (non-stimulated, NS). The reactions were stopped by transferring the samples to ice and immediately spinning down the cells to initiate blocking and staining. To analyze the plasma membrane expression of plasma membrane markers, the cells were blocked in ice-cold PBS containing 1% BSA and stained with phycoerythrin (PE)-, FITC-, or Alexa647-conjugated anti-human CD63, CD66b, MMP9, and CD11b antibodies that detect extracellular epitopes of these markers. The cells were then washed and fixed in 1% paraformaldehyde in PBS. Samples were analyzed using a NovoCyte flow cytometer, and the data were processed using FlowJo software.

LPS-challenged mice = experiment: LPS-induced systemic inflammation (endotoxemia/sepsis), plasma cytokines; type: in vivo, mouse; conditions: for IL-10 levels: FIG. 10B
Method: FIG. 10A-B. Treatment with compound NEIa-C6 inhibits pro-inflammatory cytokine production in a model of sepsis. We tested the ability of C6 to protect mice from LPS-induced systemic inflammation. In these experiments, mice (n=4 independent mice per group) receive NEIa-C6 (30 mg/Kg) or vehicle by a single i.p. injection and two hours later, the animals are challenged with a single i.p. injection of lipopolysaccharide (LPS, 8 mg/Kg) or PBS (vehicle for LPS). Four hours after LPS/PBS insult, blood is collected and cytokines are analyzed in plasma using multiplex technology.
To test whether Nexinhibs, and in particular NEIa-C6, have additional protective properties in inflammation models relevant to human disease, independent of inflammasome activation, we tested the ability of C6 to protect mice from LPS-induced systemic inflammation. In these experiments, mice received NEIa-C6 (30 mg/Kg) or vehicle by a single i.p. injection and two hours later, the animals are challenged with a single i.p. injection of lipopolysaccharide (LPS, 8 mg/Kg), an important outer membrane component of gram-negative bacteria. In this model, endotoxemia insult induces the production of pro-inflammatory cytokines. To test the possible anti-inflammatory effect of NEIa-C6, we comparatively analyzed cytokine levels in plasma of LPS-insulted and control mice using multiplex technology.

[2] = 30 mg/Kg i.p., LPS 8 mg/Kg, plasma, FIG. 10A

CCN(CC)CCNC(=O)/C(=C/c1cccc([N+](=O)[O-])c1)n1cncn1 [154 (C6)]
Inhibition of exocytosis vs DMSO control (mouse neutrophils): significant inhibition of exocytosis | inhibition at 10 µM (mouse neutrophils; Mus musculus, Neutrophil): 62.4% | Release of CD11b+ vesicles / CD11b upregulation [1]: unaffected | Production of pro-inflammatory cytokines (LPS-challenged mice; 30 mg/Kg i.p. 2 h before LPS 8 mg/Kg, plasma 4 h after LPS, FIG. 10A): inhibit the production of the indicated pro-inflammatory cytokines | GM-CSF production (LPS-challenged mice; [2]): significantly decreases | IL-1β production (LPS-challenged mice; [2]): significantly decreases | IL-17 levels (LPS-challenged mice; [2]): decreased | MIP-2 levels (LPS-challenged mice; [2]): decreased | TL-3 levels (LPS-challenged mice; [2]): decreases | IL-10 levels (LPS-challenged mice; 30 mg/Kg i.p., LPS 8 mg/Kg, plasma, listed as C6): increases the production of IL-10 | IL-10 levels (LPS-challenged mice; 30 mg/Kg i.p., LPS 8 mg/Kg, plasma, listed as NEIa-C6): increased the levels of IL-10
